Read-outs that look alike come from different tables or passages of the source. Ends that are not written are not given here.
Assays:
[1] = tested on: rabbit erythrocytes; conditions: ref DBAASP; cited from earlier work
[2] = tested on: rat erythrocytes; assay: Hemolysis assay; conditions: rat RBC 10% in PBS, 37 °C, 1 min, 1-128 µM, absorbance 450 nm, triplicate, fitted with GraphPad Prism 8
Method: In vitro hemolysis and cytotoxicity were measured by WuXi AppTec Co., ltd. The rat blood was collected and mixed in PBS, then centrifuged at 500 g for 5 mins to make the red blood cell solution (RBC, 10%). Two‐fold gradient dilution was performed to obtain different concentrations (128, 64, 32, 16, 8, 4, 2, and 1 µM) of AMP solutions. Then AMP solutions were added into 100 µL RBC to make the test solution and incubated at 37 °C for 1 min. The assay solution was centrifuged at 2500 g for 6 mins. After centrifugation, the 75 µL supernatant was placed into a 96‐well plate. PBS was used as the vehicle control and 0.1% Triton X‐100 was the positive control. The absorbance of the supernatant in each well was detected at 450 nm using EnVison (PerkinElmer) and the percentage of hemolysis was calculated as Equation (15). The HC25 value was fitted using GraphPad Prism 8. All tests were performed in triplicate. (15) Hemolysis%=AbsAMP−AbsPBS/AbsTritonX−100−AbsPBS×100

[3] = tested on: HEK293T cells; assay: Cytotoxicity assay (CellTiter-Glo); type: cell-based, human; conditions: 72 h, 1-128 µM, triplicate
Method: HEK293T cells were cultured in DMEM supplemented with 10% FBS and incubated at 37 °C with 5% CO2. After planting the cells into a 96‐well plate and incubated overnight, AMP solutions were added. The gradient dilution of AMPs followed the same setting as mentioned in the hemolysis assay. Staurosporine (STS) was used as a positive control and PBS as vehicle control. STS was diluted to 60, 12, 2.4, 0.48, 0.1, 0.02, 0.0038, and 0.0008 µM. After incubation for 72 h, the CellTiter‐Glo®Luminescent assay was performed to evaluate the cell viability. After equilibration to room temperature, the 96‐well plate containing treated cells was loaded with 100 µL CellTiter Glo (CTG, Promega) reagent each well. The plate was incubated for 30 mins, then detected by the EnVision system at a […]. Data were fitted and analyzed with GraphPad Prism 8. All tests were performed in triplicate.

[4] = tested on: S.aureus ATCC6538; conditions: ATCC6538, 18 h
Method: (§1) Four standard bacteria used for the MIC test were Escherichia coli ATCC25922, Pseudomonas aeruginosa ATCC9027, Staphylococcus aureus ATCC6538, and Bacillus subtilis ATCC6633. The testing procedures followed the Hancock methods.^[ [67] ^] The peptides were diluted in sterilized PBS to 512 µM as storage solutions. Then twofold gradient dilution was performed to make different concentrations (128, 64, 32, 16, 8, 4, 2, 1, 0.5, 0.25, and 0.125 µM) of AMPs. Each bacteria was incubated in LB broth at 37 °C until its absorbance at 625 nm reached 0.08–0.10, then diluted 10,000 times and added into a sterile 96‐well polypropylene plate (Grenier, #655201). A co‐incubation system included 100 µL peptide solution and 100 µL bacterial suspension.

[5] = tested on: E.coli ATCC25922; conditions: ATCC25922, 18 h
Method: as §1

[6] = tested on: P.aeruginosa ATCC9027; conditions: ATCC9027, 18 h
Method: as §1

[7] = tested on: B.subtilis ATCC6633
Method: as §1

[8] = tested on: human erythrocytes; conditions: cited from earlier work
[9] = tested on: tumor cells; conditions: ref DRACP; cited from earlier work

Sequence | MIC S.aureus ATCC6538 [4] [µM] | MIC E.coli ATCC25922 [5] [µM] | MIC P.aeruginosa ATCC9027 [6] [µM] | MIC B.subtilis ATCC6633 ([7]; ATCC6633, 18 h) [µM] | other results
SMWSGMWRRKLKKLRNALKKKLKGE [Latarcin-1] | – | – | – | – | Concentration for 20% hemolysis [1]: 80 µM
WKKWRWWWRWKKLWW [A10] | – | – | – | – | HC25 (concentration that causes 25% hemolysis) [2]: 30.13 µM; CC50 (concentration that reduces viability by 50%) [3]: 51.11 µM
KKQVKWLLKVWKKVGIKLGAKLPVWK [S01] | 2 | 16 | 64 | 2 | –
RRLRRLRILLFLKRVLRR [S02] | – | – | – | – | HC25 (concentration that causes 25% hemolysis) [2]: > 128 µM; CC50 (concentration that reduces viability by 50%) [3]: > 128 µM
GILFLKRLRILGIGKLLLLKR [S05] | 128 | > 128 | > 128 | 64 | –
KLKIKFKFHLKLFGLF [S09] | 128 | > 128 | > 128 | > 128 | –
DGWTMVKARYIKRFMRGLRGFHIKAA [2-1] | 16 | 8 | > 128 | 8 | –
KLYKYKYRKVYKKQRRR [R09] | 64 | > 128 | > 128 | > 128 | –
WWWHLRIWLKKKHQKAQWKKFGWFMKQHH [R05] | 2 | > 128 | 128 | 8 | –
RWWRGWWRRKLKKLRKKLKKKLKGM [A01] | – | – | – | – | HC25 (concentration that causes 25% hemolysis) [2]: 14.66 µM; CC50 (concentration that reduces viability by 50%) [3]: 11.62 µM
RLKIHLYIKHYRRPKIVIRLKIK [R01] | 128 | > 128 | > 128 | > 128 | –
KWWKRRRWRWRWKKLWK [A04] | – | – | – | – | HC25 (concentration that causes 25% hemolysis) [2]: > 128 µM; CC50 (concentration that reduces viability by 50%) [3]: 49.63 µM
YKGFWRKIIYLIMMHAMKFMVWFLHLPKQ [R08] | > 128 | > 128 | > 128 | > 128 | –
FFHHIFRKIHHVFKKIHRLFHH [A09] | 8 | 64 | > 128 | 4 | –
RGWTMVKARYIKRFMRGLRGFHIKAA [2-2] | 2 | 4 | 128 | 2 | –
RGWFKVKRRYIKRFMRGLRGFHIKAA [R04] | 0.5 | 2 | 8 | 1 | CC50 (concentration that reduces viability by 50%) [3]: 23.59 µM
VKKRLLFRKPLLKLFLLFGRRLKA [S07] | – | – | – | – | HC25 (concentration that causes 25% hemolysis) [2]: > 128 µM; CC50 (concentration that reduces viability by 50%) [3]: 22.12 µM
KWFFKWFRKHFLKWMRQYFHK [R02] | 8 | 128 | 64 | 4 | –
KQQRKRGRVRKALLGKVIGFGGLKLKG [S08] | – | – | – | – | HC25 (concentration that causes 25% hemolysis) [2]: > 128 µM; CC50 (concentration that reduces viability by 50%) [3]: > 128 µM

Sequence | MIC S.aureus ATCC6538 [4] [µM] | MIC E.coli ATCC25922 [5] [µM] | MIC P.aeruginosa ATCC9027 [6] [µM] | MIC B.subtilis ATCC6633 ([7]; ATCC6633, 18 h) [µM] | other results
AFHHIFRGIVHVGKTIHRLVTG [Piscidin 1 [F1A], reference compound] | – | – | – | – | MIC S.aureus [4]: 4 µM; MIC E.coli [5]: 16 µM; MIC P.aeruginosa [6]: > 128 µM; MIC B.subtilis ([7]; ATCC6633, 18 h): 4 µM; Concentration for 100% hemolysis ([8]; ref DBAASP): 100 µM
IKRRIRRRPIRRRQRR [S06] | 128 | > 128 | > 128 | > 128 | –
RWRKWRRWWWRKKKLGF [A06] | – | – | – | – | HC25 (concentration that causes 25% hemolysis) [2]: > 128 µM; CC50 (concentration that reduces viability by 50%) [3]: 71.09 µM
GRKKRRRRRRGGWWWKLGLRWF [A08] | 64 | > 128 | > 128 | 64 | –
GIKDWIKGAAKTLIKTVASHIANQ [Ascaphin-5, reference compound] | – | – | – | – | MIC S.aureus [4]: 4 µM; MIC E.coli [5]: 16 µM; MIC P.aeruginosa [6]: 128 µM; MIC B.subtilis ([7]; initial sequences of A01-A10, same conditions as A01-A10): 16 µM; HC50 ([8]; ref DRAMP): > 200 µM
RKRVVWGKIFFRRR [S04] | – | 64 | – | 64 | –
WVQKKVIKLILKGLFALKLLG [S03] | 128 | > 128 | > 128 | > 128 | HC25 (concentration that causes 25% hemolysis) [2]: > 128 µM; CC50 (concentration that reduces viability by 50%) [3]: > 64 µM
QPKKPYKPIYKKVRGVLIPFKRV [R10] | > 128 | > 128 | > 128 | > 128 | –
WIPKRFGIVIKRFYYRPFYPLFQ [R07] | 128 | > 128 | > 128 | > 128 | –
LWRWKLLGRISVIIGKIKAALRLWF [R06] | > 128 | > 128 | > 128 | > 128 | –
WRWKGRWRRKLKKLRWKLKKKLKLG [A03] | – | – | – | – | HC25 (concentration that causes 25% hemolysis) [2]: > 128 µM; CC50 (concentration that reduces viability by 50%) [3]: 21.67 µM
RGWFKVKMRYIKRFMRGLRGFHIKAA [2-6] | 1 | 4 | 16 | 2 | –
GRKKRRQRRRGGWMWVTNLRTD [TAT-Ras-GAP317-326] | – | – | – | – | Hemolysis and cytotoxicity [9]: Enhances genotoxin-induced cytotoxicity in tumor cells
FFHHIFRAIVHVGKTIHRLVTG [Piscidin 1 [G8A], reference compound] | – | – | – | – | MIC S.aureus [4]: 4 µM; MIC E.coli [5]: 16 µM; MIC P.aeruginosa [6]: > 128 µM; MIC B.subtilis ([7]; ATCC6633, 18 h): 4 µM; HC50 ([8]; ref DBAASP): 4 µM
IFHHIFRGIHHIFKGIHRLWKR [A02] | 4 | 64 | > 128 | 4 | –
GIKKWIKGWAKKLIKKVAKKIAKQ [A05] | 1 | 0.5 | 4 | 0.25 | –
GIKKWIKGAIKKLIKKVAKWIWKQ [A07] | 2 | 8 | 16 | 0.5 | –
YWRRWYIWRWRRWRWLRYI [R03] | 128 | > 128 | > 128 | 128 | –

Reference: paper PMC12631831, “Painting Peptides With Antimicrobial Potency Through Deep Reinforcement Learning” (Advanced Science, 2025)
